These results are taken from patent US7705188B2 (Arizona Board of Regents, a body corporate of the State of …, priority 2002, dated 2010).

Values after ≈ are worked out from the molar mass of the structure shown. Like-named read-outs stand apart in the source and are kept apart here. Some results are limits rather than exact numbers.

Series [1] has as its system Candida albicans. In words: Antimicrobial broth microdilution, MIC. The format is cell-based. The following applies: read-out: Minimum inhibitory concentration. An excerpt: (§1) Stilbene production has been correlated with the resistance of grape leaves to fungal infection.
(Broth dilution looks for growth in wells or tubes with falling amounts of substance.)

For series [2], the system named is Cryptococcus neoformans. In words: Antimicrobial broth microdilution, MIC. The following applies: read-out: Minimum inhibitory concentration. The format is cell-based.
From the text: as §1

Series [3] concerns Enterobacter cloacae. Put plainly: Antimicrobial broth microdilution, MIC. The following applies: read-out: Minimum inhibitory concentration. The format is cell-based.
From the text: as §1

Series [4] relates to Enterococcus faecalis. In words: Antimicrobial broth microdilution, MIC. The following applies: for MIC: read-out: Minimum inhibitory concentration. The format is cell-based.
From the text: as §1

For series [5], the system named is Escherichla coli. Put plainly: Antimicrobial broth microdilution, MIC. The format is cell-based. The following applies: read-out: Minimum inhibitory concentration.
From the text: as §1

Series [6] has as its system Micrococcus luteus. Put plainly: Antimicrobial broth microdilution, MIC. The following applies: read-out: Minimum inhibitory concentration. The format is cell-based.
From the text: as §1

Series [7] has as its system Neisseria gonorrhoeae. Put plainly: Antimicrobial broth microdilution, MIC. The format is cell-based.
From the text: as §1

Series [8] relates to Staphylococcus aureus. In words: Antimicrobial broth microdilution, MIC. The following applies: read-out: Minimum inhibitory concentration. The format is cell-based.
From the text: as §1

Series [9] has as its system Stenotrophomonas maltophilia. Put plainly: Antimicrobial broth microdilution, MIC. The format is cell-based. The following applies: read-out: Minimum inhibitory concentration.
From the text: as §1

Series [10] relates to Streptococcus pneumoniae. In words: Antimicrobial broth microdilution, MIC. The format is cell-based. The following applies: read-out: Minimum inhibitory concentration.
From the text: as §1

Series [11] has as its system human leukemia HL-60 cell line. The following applies: cited from earlier work.
Series [12] relates to murine CaNT adenocarcinoma. The following applies: six hours after single i.p. injection, 100 mg/kg; cited from earlier work.
The subject of series [13] is BXPC-3. Put plainly: Cytotoxicity, pancreas-a BXPC-3. The format is cell-based, human.
In series [14] the test system is SF-268. Put plainly: Cytotoxicity, CNS SF-268. The format is cell-based, human.
Series [15] deals with NCI-H460. In words: Cytotoxicity, lung-NSC NCI-H460. The format is cell-based, human.
In series [16] the test system is DU-145. Put plainly: Cytotoxicity, prostate DU-145. The format is cell-based, human.
Series [17] relates to tubulin. Put plainly: Inhibition of tubulin polymerization. The format is biochemical. The following applies: for Inhibition of tubulin assembly, in words: direct comparison with 2a and 2c; for IC50: tubulin 10 μM, extent of assembly after 20 min at 30° C., read-out: Inhibition of tubulin Polymerization IC50 (μM) ± SD. The protocol: (§2) Extent of assembly after 20 min at 30° C. was the parameter measured. The colchicine binding assay was performed as earlier reported.^27 The tubulin concentration was 1.0 μM, the [3H] colchicine concentration was 5.0 μM, and the potential inhibitor concentrations were as indicated. Binding of colchicine was measured following a 10 min incubation at 37° C.

For series [18], the system named is tubulin. In words: Inhibition of [3H]colchicine binding to tubulin. The following applies: for Inhibition of colchicine binding % Inhibition, 2 μM inhibitor / Inhibition of colchicine binding % Inhibition, 5 μM inhibitor: tubulin 1.0 μM, [3H]colchicine 5.0 μM, 10 min at 37° C. The protocol: as §2
Series [19] deals with MCF-7. In words: Cytotoxicity, breast MCF-7. The format is cell-based, human. The following applies: Homo sapiens, MCF7.
Series [20] deals with KM201.2. In words: Cytotoxicity, colon KM201.2. The format is cell-based, human. The following applies: Homo sapiens, KM201.2; read-out: Colon KM201.2 GI50.
Series [21] has as its system P-388 and human tumor cell lines. In words: Cytotoxicity, summary over P-388 and human tumor cell lines. The format is cell-based.
Series [22] deals with bacteria and fungi. Put plainly: Antimicrobial evaluation, summary. The format is cell-based.
From the text: as §1

[23] abbreviates: Neisseria gonorrhoeae; read-out: Minimum inhibitory concentration.

Regarding `Oc1ccc(/C=C/c2cc(O)cc(O)c2)cc1` [Compound 1, 3,4′,5-trihydroxy-trans-stilbene, reference compound], the MIC in series [1], in series [2], in series [3], in [4] (first line (r12)), in [4] (second line (r15)) and in [5] (Escherichla coli) was > 64 µg/mL throughout. In addition, the MIC in series [6] was > 64 µg/mL; in series [7] (setting [23]) it was 16 to 32 µg/mL (≈ 70.1 to 140 µM); in [8] it was > 64 µg/mL; in [9], > 64 µg/mL; in series [10], > 64 µg/mL. Also, the “Activity against Neisseria gonorrhoeae, in words” value in [7] (broth microdilution assays) was “demonstrated”. In addition, the “Apoptosis and Bcl-2 expression” value in series [11] is “induce apoptosis and decrease expression of Bcl-2”.

In the case of `COc1ccc(/C=C\c2cc(OC)c(OC)c(OC)c2)cc1OP(=O)([O-])[O-].[Na+].[Na+]` [Compound 2b, combretastatin A-4 sodium phosphate prodrug], the “Tumor vascular function shutdown” value in [12] was “rapid, irreversible and extensive”.

The term IC50 denotes the midpoint of a concentration-inhibition curve. As to `COc1ccc(C=Cc2cc(OC)cc(OC)c2)cc1` [Compound 4a, 3,4′,5-trimethoxystilbene], the “Pancreas-a BXPC-3 GI50” value in series [13] (BXPC-3) was found to be 0.0034 µg/mL. In series [14] (SF-268), the “CNS SF-268 GI50” value stood at 0.0044 µg/mL. Also, the “Lung-NSC NCI-H460 GI50” value in [15] (NCI-H460) was found to be 0.0028 µg/mL. The “Prostate DU-145 GI50” value in series [16] (DU-145) is 0.0054 µg/mL. Besides, in series [17], the “Inhibition of tubulin assembly, in words” value was “more inhibitory than 2a”. The IC50 in [17] is 1.8 ± 0.3 µM. The “Inhibition of colchicine binding, in words” value in [18] is listed as “essentially equivalent to 2a”. Besides, the “Inhibition of colchicine binding % Inhibition, 2 μM inhibitor” value in series [18] is 88 ± 1%. Moreover, in series [18], the “Inhibition of colchicine binding % Inhibition, 5 μM inhibitor” value amounted to 95 ± 1%. Besides, the MIC in series [1], in [2], in series [3], in [4], in series [5] and in series [6] was > 64 µg/mL throughout. The MIC in [7] (Neisseria gonorrhoeae, read-out: Minimum inhibitory concentration) is > 64 µg/mL; in series [8] it was > 64 µg/mL; in [9], > 64 µg/mL; in [10], > 64 µg/mL. The Minimum inhibitory concentration result in [4] (second line (r15)) is “* (no inhibition at 64 μg/ml)”.

Usually GI50 stands for the concentration at which growth is held to half of that of the control. As to `COc1cc(C=Cc2ccc(O)cc2)cc(OC)c1` [Compound 14c, 3,5-dimethoxy-4′-hydroxy-stilbene], the GI50 was 12.6 µg/mL (≈ 49.2 µM) in series [13] (Homo sapiens, BXPC-3, BXPC-3); 3 µg/mL (≈ 11.7 µM) in [19]; 2.2 µg/mL (≈ 8.58 µM) in series [14] (Homo sapiens, SF-268, SF-268, read-out: CNS SF-268 GI50); 2.8 µg/mL (≈ 10.9 µM) in series [15] (Homo sapiens, NCI-H460, NCI-H460, read-out: Lung-NSC NCI-H460 GI50); 11.9 µg/mL (≈ 46.4 µM) in series [20]; 2.3 µg/mL (≈ 8.97 µM) in series [16] (Homo sapiens, DU-145, DU-145). Also, the “Fold less active than 4a as inhibitor of tubulin assembly” value in series [17] (relative to 4a) is 16 fold. Besides, the IC50 in series [17] came to 29 ± 9 µM. Moreover, the MIC in [1] was 64 µg/mL (≈ 250 µM); in series [2], 16 µg/mL (≈ 62.4 µM); in series [3], > 64 µg/mL; in series [4] (first line (r12)) it was 32 to 64 µg/mL (≈ 125 to 250 µM); in series [4] (second line (r15)) it was > 64 µg/mL; in series [5] (Escherichla coli) it was > 64 µg/mL. Further, the MIC was 8 µg/mL (≈ 31.2 µM) in [6]; 8 µg/mL (≈ 31.2 µM) in series [7] (setting [23]); 32 µg/mL (≈ 125 µM) in [8]; > 64 µg/mL in [9]; 16 µg/mL (≈ 62.4 µM) in [10]. The “Cytotoxicity against cancer cell lines, comparison in words” value in [21] was “comparable to that of resveratrol”. Also, the “Antimicrobial activity, in words” value in series [22] is “most active of the stilbenes and benzophenones tested”.

The term melting point denotes the temperature, or range, at which the solid turns liquid. As for `COc1ccc(C(=O)c2cc(OC)cc(OC)c2)cc1` [Compound 16a, 3,4′,5-trimethoxybenzophenone], the melting point is 90.3 to 91.6 °C. In [19], the GI50 worked out at 21.7 µg/mL (≈ 79.7 µM). Also, in series [17], the “Inhibition of tubulin assembly, in words” value is “somewhat less potent than 2c” and the half-inhibitory concentration (IC50) was 2.6 ± 0.3 µM. Besides, in [18], the “Inhibition of colchicine binding, in words” value was “least activity in both assays”; the “Inhibition of colchicine binding % Inhibition, 2 μM inhibitor” value was determined as 47 ± 5%; the “Inhibition of colchicine binding % Inhibition, 5 μM inhibitor” value is 69 ± 0.3%. Further, the MIC in series [1] is > 64 µg/mL. Besides, the MIC in series [2] was > 64 µg/mL. Besides, the MIC in [3] was > 64 µg/mL. The MIC in series [4] (first line (r12)) is > 64 µg/mL. Also, the MIC in [4] (second line (r15)) is > 64 µg/mL. Also, the MIC in [5] (Escherichla coli) was > 64 µg/mL. Also, the MIC in [6] is > 64 µg/mL. Also, in series [7] (setting [23]), the MIC turned out to be 32 µg/mL (≈ 118 µM). Moreover, the MIC in series [8] was > 64 µg/mL. Besides, the MIC in series [9] is > 64 µg/mL. Further, the MIC in series [10] was > 64 µg/mL. For the same molecule, in series [21], the “Cytotoxicity against cancer cell lines, comparison in words” value is reported as “superior in activity to resveratrol (1)”. In addition, in [21] (relative to 4a), the “Fold less active (cytotoxicity) than compound 4a” value is 10-100 fold.
